Source: patent US10450549B2, “Aryloxyphenoxypropionate tolerance in turfrgass species and use of AAD1 as a selectable marker” (Dow AgroSciences, LLC, priority 2004, dated 2019)
Where “and” joins values, the source holds several entries; their conditions need not be identical. Equal entries are not always repeated.

What was measured:
callus event 3404-006 = assay: Dose response of AAD1 (v3) expressing maize callus event; format: cell-based; conditions: haloxyfop (Gallant Super) up to 400 nM
Protocol: Non-transformed donor Hi-II cell lines were pooled together, […]-treated without DNA, filtered onto GN6 medium at the rate of 6 ml per filter, and allowed to callus for 2-3 weeks at 28° C. Approximately 200 mg of callused suspension tissue was transferred per treatment to selection media in 60×20 mm plates containing 30, 100 or 300 nM R-haloxyfop acid. Three replicates were used per concentration. A control medium containing 1 mg/L bialaphos (from Herbiace commercial formulation, Meiji Seika, Japan), GN6 (1H), was also included for comparison. Callus was removed after 2 weeks, weighed, and transferred to fresh media of the same concentration for another 2 weeks. After a total of 4 weeks elapsed time, tissue was removed, weighed a final time, and then discarded.
A smaller subset of these events was assessed in dose-response studies in comparison to a non-transformed control. A range of concentrations of haloxyfop (from Gallant Super formulation), up to 400 nM, were tested.

[1] = tested on: F1 progeny of ‘Crenshaw’ creeping bentgrass pDAB5042 events; assay: AAD1 whole-plant selectable marker: F1 progeny of Crenshaw pDAB5042 events x elite lines, injury to 240 g ae/ha quizalofop-p-ethyl; format: in vivo
Protocol: The use of AAD1 as a selectable marker for quizalofop selection agent was tested with an “F1” generation of plants that were produced by crossing selected single copy pDAB5042 ‘Crenshaw’ events with non-transgenic elite lines (lines 3425-12, 3427-2, or 3431-1). ‘Crenshaw’ events were vernalized in a growth chamber; elite line crossing partners were field vernalized. Nearing the time of bloom, a non-transgenic plant at the same reproductive stage was moved into the growth chamber in close proximity of the pDAB5042 event. Panicles were secured together with a twist tie, and both panicles were bagged together and labeled. Alternatively, to increase the number of crosses, some panicles were excised and secured to an intact panicle and bagged. At seed harvest, individual seed heads were removed and packaged individually.
Seed were sown on flats containing Metromix™, and germinated in a growth chamber. All emerged seedlings were transplanted into growth medium prepared by mixing Promix® and sand in a 2 to 1 ratio. The medium was contained in plastic pots with a surface area of 84.6 square centimeters (cm^2). Plants were maintained in a greenhouse until established. Leaf tissue from each seedling was harvested for molecular analysis, and tissues were probed for the presence of AAD1. After tissue harvest, the established plants were trimmed to simulate mowing.
The same two plants were the only plants testing positive for one copy of AAD1.

AAD1 (v3) event lines = assay: Field tolerance of pDAB3404 T1 corn to quizalofop and 2,4-D: AAD1 (v3) events; format: in vivo; conditions: 140 g ae/ha
Source text: Two field trials were established at field stations in Hawaii and Indiana. […] The hybrid Hi-II×5XH571 is of the same parentage as the AAD1 (v3) event lines. The hybrid Croplan 585SR is a sethoxydim resistant line.
The experimental design was a split-plot with four replications. The main plot was herbicide treatment and the sub-plot was AAD1 (v3) event or comparison hybrid. Plots were one row by 3.7 meters with approximately twenty-five seeds planted in each row. For AAD1 events, seeds from a different lineage within the event were planted in each replicate.
Glufosinate at 560 g ai/ha was applied to AAD1 (v3) plots at the V2 stage to eliminate non-transformed plants. […] Treatments were applied using backpack broadcast boom equipment delivering 187 L/ha carrier volume at 130-200 kpa pressure.
Quizalofop treated plots were visually assessed for crop injury at one and three weeks after application (WAA) using a 0-100% scale, where 0 equals no injury and 100 equals complete death.

[2] = tested on: ‘Justice’ tall fescue transgenic events; assay: Quizalofop on AAD1 ‘Justice’ tall fescue plants; format: in vivo; conditions: written in present tense
Protocol: ‘Justice’ tall fescue transgenic plants events were selected on tissue culture media containing quizalofop, and confirmed via PCR amplification of an inserted T-strand.
A growth medium was prepared by mixing Promix® and sand in a 2 to 1 ratio. The medium was contained in plastic pots. When required to maintain plant health, a fungicide, insecticide, and/or other chemical or physical treatment was applied to stock plants. The plants were maintained in a greenhouse and treated with fertilizer and growth supplements as needed and water was added on a regular basis. Supplemental lighting was provided.
The selected T0 plants are sprayed with quizalofop at rates ranging in concentration, beyond the typical in field usage rate. This rate structure is selected based on the GR90 (herbicide rate which produces 90% injury and/or growth inhibition) and the rate that would also control susceptible monocot weed species. […]
The treated plants and control plants are placed in a greenhouse and watered by sub-irrigation to prevent wash-off of the test compounds. At various times after application, the condition of the test plants as compared with that of the untreated plants is determined visually and scored on a scale of 0 to 100 percent, where 0 corresponds to no injury or growth inhibition, and 100 corresponds to complete kill. […]

SMILES: CC(Oc1ccc(Oc2ncc(C(F)(F)F)cc2Cl)cc1)C(=O)O (centres unmarked) [haloxyfop]
- callus growth of event 3404-006 (callus event 3404-006): no significant reduction in callus growth

SMILES: CCOC(=O)[C@@H](C)Oc1ccc(Oc2cnc3cc(Cl)ccc3n2)cc1 [quizalofop-p-ethyl]
- Visual Injury 39 DAA ([1]; F1 progeny of 3431-1 × pDAB5042 Event 162): 100%
- Visual Injury 39 DAA ([1]; F1 progeny of NT6 × pDAB5042 Event 186): 95%
- Visual Injury 39 DAA ([1]; individual F1 progeny of 3427-2 × pDAB5042 Event 186): 60% and 80% and 95% (4×) and 90% and 99% (3×) and 85% and 100% (2×)
- Visual Injury 39 DAA ([1]; individual F1 progeny of 3431-1 × pDAB5042 Event 127): 90% (4×) and 95% (4×) and 100% (6×) and 99%
- Visual Injury 39 DAA ([1]; individual F1 progeny of 3431-1 × pDAB5042 Event 186): 100% (6×) and 99% (10×) and 95% (8×) and 80% (2×) and 90%
- Visual Injury 39 DAA ([1]; individual F1 progeny of pDAB5042 Event 127 × 3431-1): 99% (3×) and 95%
- Visual Injury 39 DAA ([1]; individual F1 progeny of pDAB5042 Event 144 × 3425-12): 99% and 100%
- Visual Injury 39 DAA ([1]; individual F1 progeny of pDAB5042 Event 186 × 3425-12 (asterisk: AAD1 positive)): 0%
- Visual Injury 39 DAA ([1]; individual F1 progeny of pDAB5042 Event 186 × 3431-1): 99% (4×) and 100% (2×) and 90%
- Visual Injury 39 DAA ([1]; individual progeny of NT6 × 3427-2): 90% and 100% (2×)

SMILES: C[C@@H](Oc1ccc(Oc2cnc3cc(Cl)ccc3n2)cc1)C(=O)O [quizalofop]
- % Injury 3 WAA (0-100 scale) (AAD1 (v3) event lines; HI, 3404.001): 25%
- % Injury 3 WAA (0-100 scale) (AAD1 (v3) event lines; HI, 3404.006): 0%
- % Injury 3 WAA (0-100 scale) (AAD1 (v3) event lines; HI, 3404.013): 0%
- % Injury 3 WAA (0-100 scale) (AAD1 (v3) event lines; HI, 3404.017): 0%
- % Injury 3 WAA (0-100 scale) (AAD1 (v3) event lines; HI, 3404.020): 0%
- % Injury 3 WAA (0-100 scale) (AAD1 (v3) event lines; HI, 3404.022): 0%
- % Injury 3 WAA (0-100 scale) (AAD1 (v3) event lines; HI, 3404.025): 0%
- % Injury 3 WAA (0-100 scale) (AAD1 (v3) event lines; HI, 3404.027): 0%
- % Injury 3 WAA (0-100 scale) (AAD1 (v3) event lines; HI, 3404.031): 0%
- % Injury 3 WAA (0-100 scale) (AAD1 (v3) event lines; HI, 3404.033): 0%
- % Injury 3 WAA (0-100 scale) (AAD1 (v3) event lines; HI, 3404.036): 0%
- % Injury 3 WAA (0-100 scale) (AAD1 (v3) event lines; HI, 3404.044): 0%
- % Injury 3 WAA (0-100 scale) (AAD1 (v3) event lines; HI, 3404.050): 0%
- % Injury 3 WAA (0-100 scale) (AAD1 (v3) event lines; HI, 3404.053): 0%
- % Injury 3 WAA (0-100 scale) (AAD1 (v3) event lines; HI, 3404.074): 0%
- % Injury 3 WAA (0-100 scale) (AAD1 (v3) event lines; HI, 3404.082): 0%
- % Injury 3 WAA (0-100 scale) (AAD1 (v3) event lines; IN, 3404.001): 25%
- % Injury 3 WAA (0-100 scale) (AAD1 (v3) event lines; IN, 3404.006): 0%
- % Injury 3 WAA (0-100 scale) (AAD1 (v3) event lines; IN, 3404.013): 0%
- % Injury 3 WAA (0-100 scale) (AAD1 (v3) event lines; IN, 3404.017): 0%
- % Injury 3 WAA (0-100 scale) (AAD1 (v3) event lines; IN, 3404.020): 0%
- % Injury 3 WAA (0-100 scale) (AAD1 (v3) event lines; IN, 3404.022): 0%
- % Injury 3 WAA (0-100 scale) (AAD1 (v3) event lines; IN, 3404.025): 0%
- % Injury 3 WAA (0-100 scale) (AAD1 (v3) event lines; IN, 3404.027): 0%
- % Injury 3 WAA (0-100 scale) (AAD1 (v3) event lines; IN, 3404.031): 0%
- % Injury 3 WAA (0-100 scale) (AAD1 (v3) event lines; IN, 3404.033): 0%
- % Injury 3 WAA (0-100 scale) (AAD1 (v3) event lines; IN, 3404.036): 0%
- % Injury 3 WAA (0-100 scale) (AAD1 (v3) event lines; IN, 3404.044): 0%
- % Injury 3 WAA (0-100 scale) (AAD1 (v3) event lines; IN, 3404.050): 0%
- % Injury 3 WAA (0-100 scale) (AAD1 (v3) event lines; IN, 3404.053): 0%
- % Injury 3 WAA (0-100 scale) (AAD1 (v3) event lines; IN, 3404.074): 0%
- % Injury 3 WAA (0-100 scale) (AAD1 (v3) event lines; IN, 3404.082): 0%
- injury of tall fescue events compared to non-transgenic control plants [2]: less injury
